In US7662832B2, “Pyrrolo[2,3-c]pyridine derivatives and processes for the preparation thereof” (priority 2004, dated 2010) one finds IC50 data, which are given here for 24 compounds.

Where a name gives a salt, the structure may show the parent alone.

In the assay the target is Proton Pump (H^+/K^+-ATPase) (Sus scrofa, UniProt P19156). Kind of assay: Inhibitory effects on proton pump (H^+/K^+-ATPase) activity. It counts as biochemical. The conditions noted are these: hog gastric vesicles; K^+ stimulated H^+/K^+-ATPase activity; 30 minutes at 37° C.
Chain of Proton Pump (H^+/K^+-ATPase) (P19156 2-1034 limits assumed): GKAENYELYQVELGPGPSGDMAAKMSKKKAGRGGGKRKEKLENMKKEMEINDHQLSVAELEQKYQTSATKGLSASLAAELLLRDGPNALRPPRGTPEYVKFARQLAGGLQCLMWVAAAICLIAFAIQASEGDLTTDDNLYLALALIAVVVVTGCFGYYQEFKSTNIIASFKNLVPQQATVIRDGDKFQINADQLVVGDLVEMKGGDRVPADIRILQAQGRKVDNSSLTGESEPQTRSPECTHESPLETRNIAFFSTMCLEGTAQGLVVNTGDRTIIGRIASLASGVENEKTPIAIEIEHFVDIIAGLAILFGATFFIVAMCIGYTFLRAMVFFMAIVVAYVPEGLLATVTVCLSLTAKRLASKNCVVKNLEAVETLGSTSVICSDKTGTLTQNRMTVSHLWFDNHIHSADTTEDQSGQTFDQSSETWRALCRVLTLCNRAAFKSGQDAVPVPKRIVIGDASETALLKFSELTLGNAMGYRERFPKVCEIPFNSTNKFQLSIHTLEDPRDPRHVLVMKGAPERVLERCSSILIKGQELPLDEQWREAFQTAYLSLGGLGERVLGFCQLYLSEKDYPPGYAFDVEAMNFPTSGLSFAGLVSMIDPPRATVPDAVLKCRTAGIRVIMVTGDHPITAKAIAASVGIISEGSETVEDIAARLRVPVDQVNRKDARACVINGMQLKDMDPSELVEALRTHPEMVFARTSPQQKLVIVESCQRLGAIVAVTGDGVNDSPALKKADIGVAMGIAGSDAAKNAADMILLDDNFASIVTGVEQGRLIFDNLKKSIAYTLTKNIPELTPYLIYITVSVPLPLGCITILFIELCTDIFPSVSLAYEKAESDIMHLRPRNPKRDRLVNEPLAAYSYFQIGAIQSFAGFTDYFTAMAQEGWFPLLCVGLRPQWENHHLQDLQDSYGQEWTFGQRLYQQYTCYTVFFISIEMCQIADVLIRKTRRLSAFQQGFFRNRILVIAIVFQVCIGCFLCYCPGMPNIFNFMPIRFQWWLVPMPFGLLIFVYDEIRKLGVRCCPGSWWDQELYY
Chain of Proton Pump (H^+/K^+-ATPase) (P18434 whole entry partner): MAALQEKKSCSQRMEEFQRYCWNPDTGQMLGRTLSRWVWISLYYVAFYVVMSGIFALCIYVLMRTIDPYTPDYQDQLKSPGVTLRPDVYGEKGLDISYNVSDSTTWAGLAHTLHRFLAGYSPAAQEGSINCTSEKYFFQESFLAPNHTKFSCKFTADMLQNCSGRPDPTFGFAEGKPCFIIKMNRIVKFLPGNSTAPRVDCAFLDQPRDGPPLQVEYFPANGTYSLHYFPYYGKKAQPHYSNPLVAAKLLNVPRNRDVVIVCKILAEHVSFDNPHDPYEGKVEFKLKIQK
What is called IC50 is the midpoint of a concentration-inhibition curve. A lower IC50 goes with greater potency in that assay. In turn, `Cc1c(C)n(CC2CC2)c2c(N3CCc4ccccc4C3)nc(C(N)=O)cc12` [Example 754, 1-cyclopropylmethyl-7-(3,4-dihydro-1H-isoquinolin-2-yl)-2,3-dimethyl-1H-pyrrolo[2,3-c]pyridin-5-carboxamide] had a concentration for half-maximal inhibition (IC50) of 4050 nM.

`CCn1c(C)c(C)c2cc(C(=O)N3CCC(CCO)CC3)nc(N3CCc4ccccc4C3)c21` [Example 804, [7-(3,4-dihydro-1H-isoquinolin-2-yl)-1-ethyl-2,3-dimethyl-1H-pyrrolo[2,3-c]pyridin-5-yl]-[4-(2-hydroxyethyl)-piperidin-1-yl]-methanone hydrochloride] gave an IC50 of 36 nM.

With `Cc1c(C)n(Cc2cccc(F)c2)c2c(N3CCc4ccccc4C3)nc(CNC3CCC3)cc12` [Example 870, N-[7-(3,4-dihydro-1H-isoquinolin-2-yl)-1-(3-fluorobenzyl)-2,3-dimethyl-1H-pyrrolo[2,3-c]pyridin-5-ylmethyl]-cyclobutylamine hydrochloride], the concentration for half-maximal inhibition (IC50) is 43 nM.

Consider `Cc1c(C)n(Cc2ccc(OC(F)(F)F)cc2)c2c(N3CCc4ccccc4C3)nccc12` [Example 479, 1-(4-trifluoromethoxybenzyl)-7-(1,2,3,4-tetrahydroisoquinolin-2-yl)-2,3-dimethyl-1H-pyrrolo[2,3-c]pyridine hydrochloride], for which the IC50 was found to be 1140 nM.

Compound `CCc1[nH]c2c(N3CCc4ccccc4C3)nccc2c1C` [Example 591, 2-ethyl-3-methyl-7-(1,2,3,4-tetrahydroisoquinolin-2-yl)-1H-pyrrolo[2,3-c]pyridine] displayed a half-maximal inhibitory concentration (IC50) of 499 nM.

Compound `C=CCn1c(C)c(C)c2cc(C(=O)N3CCNCC3)nc(N3CCc4ccccc4C3)c21` [Example 811, [1-allyl-7-(3,4-dihydro-1H-isoquinolin-2-yl)-2,3-dimethyl-1H-pyrrolo[2,3-c]pyridin-5-yl]-(piperazin-1-yl)-methanone hydrochloride] yielded an IC50 of 3 nM.

`COc1ccc(-c2nccc3c(C)c(C)n(Cc4ccccc4F)c23)cc1` [Example 353, 1-(2-fluorobenzyl)-7-(4-methoxyphenyl)-2,3-dimethyl-1H-pyrrolo[2,3-c]pyridine hydrochloride] came in with an IC50 of 490 nM.

Take `Cc1c(C)n(CC(C)C)c2c(NCc3ccc(Cl)cc3)nccc12` [Example 209, 7-(4-chlorobenzylamino)-1-isobutyl-2,3-dimethyl-1H-pyrrolo[2,3-c]pyridine hydrochloride]: half-maximal inhibition (IC50) was put at 66 nM.

As for `Cc1ccc(Cn2c(C)c(C)c3ccnc(COc4ccc(C)cc4)c32)cc1` [Example 17, 2,3-dimethyl-1-(4-methylbenzyl)-7-(p-tolyloxymethyl)-1H-pyrrolo[2,3-c]pyridine hydrochloride], the midpoint of inhibition, the IC50, lay at 430 nM.

`CC(C)=CCn1c(C)c(C)c2ccnc(CN(C)c3ccc(F)cc3)c21` [Example 119, N-[2,3-dimethyl-1-(3-methylbut-2-enyl)-1H-pyrrolo[2,3-c]pyridin-7-ylmethyl]-N-(4-fluorophenyl)-methylamine hydrochloride] returned a 50% inhibitory concentration (IC50) of 405 nM.

The compound `Cc1c(C)n(Cc2cccc(F)c2)c2c(-c3ccc4ccccc4c3)nccc12` [Example 405, 1-(3-fluorobenzyl)-2,3-dimethyl-7-(naphthalen-2-yl)-1H-pyrrolo[2,3-c]pyridine hydrochloride] showed an IC50 of 73 nM.

As for `Cc1c(C)n(Cc2cccc(F)c2)c2c(N(C)Cc3ccc(F)cc3)nccc12` [Example 159, 1-(3-fluorobenzyl)-7-[N-(4-fluorobenzyl)-N-methyl]amino-2,3-dimethyl-1H-pyrrolo[2,3-c]pyridine hydrochloride], 90 nM corresponded to half-maximal inhibition (IC50).

On to `C=C=Cn1c(C)c(C)c2ccnc(N3CCc4ccccc4C3)c21` [Example 526, 1-(propa-1,2-dienyl)-7-(1,2,3,4-tetrahydroisoquinolin-2-yl)-2,3-dimethyl-1H-pyrrolo[2,3-c]pyridine hydrochloride], for which the half-maximal inhibitory concentration (IC50) stood at 179 nM.

Compound `C=CCn1c(C)c(C)c2cc(C(=O)NCc3ccc4c(c3)OCO4)nc(N3CCc4ccccc4C3)c21` [Example 760, 1-allyl-7-(3,4-dihydro-1H-isoquinolin-2-yl)-2,3-dimethyl-N-(benzo[1,3]dioxol-5-ylmethyl)-1H-pyrrolo[2,3-c]pyridin-5-carboxamide hydrochloride] showed a half-inhibitory concentration (IC50) of 373 nM.

`Cc1c(C)n(Cc2ccccc2F)c2c(N(C)Cc3ccc(F)cc3)nccc12` [Example 147, 1-(2-fluorobenzyl)-7-[N-(4-fluorobenzyl)-N-methyl]amino-2,3-dimethyl-1H-pyrrolo[2,3-c]-pyridine hydrochloride] yielded an IC50 of 200 nM.

Compound `Cc1c(C)n(Cc2cccc(F)c2)c2c(N3CCc4ccccc4C3)nc(C(C)O)cc12` (stereo not drawn) [Example 860, 1-[7-(3,4-dihydro-1H-isoquinolin-2-yl)-1-(3-fluorobenzyl)-2,3-dimethyl-1H-pyrrolo[2,3-c]pyridin-5-yl]-ethanol hydrochloride] returned a half-inhibitory concentration (IC50) of 313 nM.

As for `Cc1c(C)n(CC2CC2)c2c(COc3ccc(F)cc3)nccc12` [Example 7, 1-cyclopropylmethyl-7-(4-fluorophenoxymethyl)-2,3-dimethyl-1H-pyrrolo[2,3-c]pyridine hydrochloride], it took 380 nM to reach half-maximal inhibition (IC50).

In the case of `CCCn1c(C)c(C)c2cc(C(=O)N3CCCCC3)nc(N3CCc4ccccc4C3)c21` [Example 801, [7-(3,4-dihydro-1H-isoquinolin-2-yl)-2,3-dimethyl-1-propyl-1H-pyrrolo[2,3-c]pyridin-5-yl]-(piperidin-1-yl)-methanone hydrochloride], the IC50 was 158 nM.

As for `CCCn1c(C)c(C)c2cc(C(=O)N3CCNCC3)nc(N3CCc4ccccc4C3)c21` [Example 813, [7-(3,4-dihydro-1H-isoquinolin-2-yl)-2,3-dimethyl-1-propyl-1H-pyrrolo[2,3-c]pyridin-5-yl]-(piperazin-1-yl)-methanone hydrochloride], 11 nM corresponded to half-maximal inhibition (IC50).

For the compound `Cc1ccc(Cn2c(C)c(C)c3ccnc(NCc4ccc(F)cc4)c32)cc1` [Example 220, 7-(4-fluorobenzylamino)-2,3-dimethyl-1-(4-methylbenzyl)-1H-pyrrolo[2,3-c]pyridine hydrochloride], the IC50 turned out to be 430 nM.

In the case of `Cc1c(C)n(CC2CC2)c2c(NCc3ccc(F)cc3)nccc12` [Example 226, 1-cyclopropylmethyl-7-(4-fluorobenzylamino)-2,3-dimethyl-1H-pyrrolo[2,3-c]pyridine hydrochloride], the concentration for half-maximal inhibition (IC50) turned out to be 70 nM.

As to `Cc1cccc(Cn2c(C)c(C)c3ccnc(CN(C)c4ccc(F)cc4)c32)c1` [Example 126, N-[2,3-dimethyl-1-(3-methylbenzyl)-1H-pyrrolo[2,3-c]pyridin-7-ylmethyl]-N-(4-fluorophenyl)-methylamine hydrochloride], the IC50 turned out to be 397 nM.

`Cc1c(C)n(Cc2ccccc2)c2c(NCc3ccc(F)cc3)nc(C(=O)N3CCN(C)CC3)cc12` [Example 906, [1-benzyl-7-(4-fluorobenzylamino)-2,3-dimethyl-1H-pyrrolo[2,3-c]pyridin-5-yl]-(4-methylpiperazin-1-yl)-methanone hydrochloride]: the half-inhibitory concentration (IC50) came to 31 nM.

`Cc1ccc(Cn2c(C)c(C)c3ccnc(COc4ccc(F)cc4)c32)cc1` [Example 5, 7-(4-fluorophenoxymethyl)-2,3-dimethyl-1-(4-methylbenzyl)-1H-pyrrolo[2,3-c]pyridine hydrochloride] returned a concentration for half-maximal inhibition (IC50) of 450 nM.
